Measured values reported in patent publication US20120053235A1, “Dihydromyricetin as an IKK-beta inhibitor used for treatment of arthritis, cancer and autoimmune conditions, and other diseases or disorders” (HONG KONG BAPTIST UNIVERSITY, priority 2010, published 2012).

Assays:
[1] = system: NF-κB nuclear translocation in human T lymphocytes; assay: NF-κB nuclear translocation (p65 Western blot of nuclear proteins); assay type: cell-based; conditions: pretreated 1 hour, 20 ng/ml PMA plus 1 μM ionomycin 120 minutes; FIG. 6A
Description: Human T lymphocytes (6×10^6/well) were pretreated with DMY for 1 hour, and subsequently stimulated with 20 ng/ml PMA plus 1 μM ionomycin for 120 minutes. The cells were then harvested and washed with PBS twice. The nuclear proteins of cells were prepared by using NucBuster™ Reagents (Novagen, USA). The washed cells were re-suspended using 60 μl NucBuster™ Reagent for […] of packed cells and processed twice by vortexing for 15 seconds, and followed by incubation on ice for 5 minutes and second vortexing for 15 seconds, and finally centrifuged at 16000 g for 5 minutes. The supernatants containing cytoplasmic protein were harvested, and then the cell pellets were re-suspended in 45 μl of NucBuster Extraction Reagent 2. The same vortexing, icing, and repeated vortexing procedures were repeated once to prepare the nuclear proteins of the cells.
Protein concentrations were determined by using Bio-Rad Protein assay. Equal amounts of nuclear proteins or whole-cell lysates were analyzed by 10% SDS-PAGE. After electrophoresis, the proteins were electro-transferred to the nitrocellulose membranes. After proteins were transferred, the membranes were blocked by 5% dried milk for 60 minutes and then washed three times for 5 min in each washing interval with Tris Buffered Saline with Tween 20 (TBS-T). […]

[2] = system: c-Fos nuclear localization in HeLa cells; assay: Nuclear localization of c-Fos (immunofluorescence); assay type: cell-based; conditions: DMY 2 hours then PMA plus ionomycin 2 hours, FIGS. 7 and 8
Description: HeLa cells (1×10^5) were seeded on the 6-well plates with cover slips and cultured overnight. The cells were treated with DMY for 2 hours at 37° C and then stimulated with or without 20 ng/ml PMA plus 1 μM ionomycin for another 2 hours. After stimulation, the cells were fixed with 4% paraformaldehyde for 15 minutes at room temperature and permeabilized by 0.1% Triton X-100 and then stained with phalloidin (Invitrogen) for 3 minutes. The cells were incubated with c-Fos antibody for 2 hour after being stained with phalloidin, and the cells were then incubated with FITC-linked secondary antibody for 1 hour after being washed with PBS for 3 times. The slides were dried in air and mounted onto the glass slides.

[3] = system: IL-2 production in human T-cell; assay: IL-2 ELISA of culture supernatants of stimulated T cells; assay type: cell-based; parameters: dose or concentration left out as unconfirmed; conditions: DMY; P/I or anti-OKT-3/anti-CD28 for 48 hours; FIGS. 3A and 3B
Description: The cells (1×10^5/well) were incubated in the presence or absence of DMY for 2 hours at the indicated concentrations, and then the cells were stimulated with P/I or anti-OKT-3/anti-CD28 for 48 hours. The cell-free culture supernatants were collected, and then the concentration of IL-2 in the supernatants was determined by ELISA method.

[4] = system: isolated human T lymphocytes; assay: T cells proliferation assay (BrdU ELISA); assay type: cell-based; conditions: stimulated with anti-OKT 3/anti-CD28 or PMA/ionomycin, 72 hours; FIGS. 2A and 2B
Description: The isolated human T lymphocytes (1×10^5 cells/well) were stimulated with anti-OKT 3/anti-CD28 antibodies or PMA/ionomycin (P/I) in the presence or absence of DMY for 72 hours.
5-bromo-2′-deoxy-uridine (BrdU, Roche) was added to the cells at the 14th hour before the end of stimulation and it could be incorporated into the DNA of the growing cells during the labeling period. The amount of BrdU incorporated into DNA was quantified as an indicator of cell proliferation. BrdU was determined by ELISA according to manufacturer's instructions.

ICR mice = conditions: mouse, in vivo
Description: ICR (Imprinting Control Region) mice (both male and female) were purchased from the Laboratory Animal Services Center, the Chinese University of Hong Kong, Hong Kong. At the beginning of the study, one mouse was given orally with DMY at a dose of 2,000 mg/kg of mouse after fasting for 12 hours. The mouse had free access to water and after 2 hours, it was supplied with chow diet. Signs of toxicosis, onset of signs, and time to death of the mouse were monitored and recorded. Results of the initial exposure were used to select the subsequent dose of DMY, using the up-and-down method to estimate the lethal dose. […] If all the mice stayed alive, a higher dose of DMY was given to another three mice. All the mice were monitored continuously for two hours, every half hour for the next 5 hours, and at least every 10 hours until the 72nd hour of the study. Mice that died were immediately undergone autopsy. Mice remaining alive for 14 days upon study were sacrificed with an overdose pentobarbital.

## O=C1c2c(O)cc(O)cc2O[C@H](c2cc(O)c(O)c(O)c2)[C@H]1O [DMY, dihydromyricetin]
[1]
  NF-κB nuclear translocation: significantly suppressed
[2]
  c-Fos nuclear localization: suppress c-Fos nuclear localization
[3]
  production of IL-2: suppress the production of IL-2
[4]
  T cell proliferation: block T cell proliferation
ICR mice
  acute oral LD50: greater than 5,000 mg/kg body weight
